Experiments:
[1] = system: 5-HT1; assay: Radioligand receptor binding assay; conditions: 10 μM compound, n=2
Method: (§1) Receptor binding assays. Receptor binding assays were performed by MDS Pharma services. Assays included: Adenosine A1 (cat# 200510), Adenosine A2A (cat# 200610), Adenosine A3 (cat# 200720), Adrenergic alpha 1 (cat# 203500), Imidazoline 12 central (cat# 241000), Imidazoline I2 peripheral (cat# 241100), Inositol triphosphate (cat# 242500), Phorbol Ester (cat# 264500), 5-HT 2B (cat# 271700), and 5-HT 4 (cat# 272000).
(§2) • Summary of radioligand binding assays for 11 receptors. Data represent % inhibition of ligand binding in the presence of 10 μM 18264 (n=2).
(§3) • Summary of radioligand binding assays for three receptors. Data represent % inhibition of ligand binding in the presence of 10 μM 20068 (n=2).

[2] = biological target: T1, 5-HT2B (Homo sapiens, UniProt P41595); assay: Radioligand receptor binding assay (MDS Pharma); conditions: 10 μM compound, n=2
T1 construct: purchased MDS Pharma services 271700
T1 sequence (P41595 whole entry): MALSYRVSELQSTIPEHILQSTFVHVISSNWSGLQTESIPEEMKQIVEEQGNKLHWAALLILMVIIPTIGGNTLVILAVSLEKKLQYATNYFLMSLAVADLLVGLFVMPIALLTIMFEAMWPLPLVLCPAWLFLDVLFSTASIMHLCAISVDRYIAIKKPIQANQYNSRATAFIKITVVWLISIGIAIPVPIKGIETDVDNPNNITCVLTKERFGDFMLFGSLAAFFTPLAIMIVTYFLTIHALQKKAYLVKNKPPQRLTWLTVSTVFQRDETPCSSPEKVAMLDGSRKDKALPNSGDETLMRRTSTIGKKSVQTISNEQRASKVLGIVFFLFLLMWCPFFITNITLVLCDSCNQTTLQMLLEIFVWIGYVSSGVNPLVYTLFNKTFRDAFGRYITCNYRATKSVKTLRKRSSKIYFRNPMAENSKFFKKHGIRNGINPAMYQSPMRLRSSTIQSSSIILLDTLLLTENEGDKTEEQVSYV
Method: as §1, §2, §3

[3] = biological target: T2, 5-HT2C (Homo sapiens, UniProt P28335); assay: Radioligand receptor binding assay; conditions: 10 μM compound, n=2
T2 sequence (P28335 33-458): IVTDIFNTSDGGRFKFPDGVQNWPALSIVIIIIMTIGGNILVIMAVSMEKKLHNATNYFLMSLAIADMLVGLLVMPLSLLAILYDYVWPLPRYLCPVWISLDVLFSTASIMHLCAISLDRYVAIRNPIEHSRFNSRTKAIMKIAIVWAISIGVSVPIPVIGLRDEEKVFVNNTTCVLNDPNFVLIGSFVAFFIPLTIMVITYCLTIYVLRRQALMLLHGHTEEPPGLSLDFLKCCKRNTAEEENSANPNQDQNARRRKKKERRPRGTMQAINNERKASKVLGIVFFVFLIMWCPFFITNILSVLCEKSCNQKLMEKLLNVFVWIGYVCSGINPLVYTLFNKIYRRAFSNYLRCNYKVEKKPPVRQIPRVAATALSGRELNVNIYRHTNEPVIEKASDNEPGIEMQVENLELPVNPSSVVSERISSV

[4] = system: 28 kDa calcineurin-regulated MCIP1 protein; assay: Western blot of MCIP1 protein in NRVM; format: cell-based, rat; conditions: NRVM stimulated with 18264 (1 μM), 48 h; CsA 500 nM; ketanserin, cyproheptadine 0.3 and 3 μM; 20068 1 and 3 μM
Method: (§4) NRVM culture. For preparations of neonatal rat ventricular myocytes (NRVMs), hearts were removed from 10-20 newborn (1-2 days old) Sprague-Dawley rats. Isolated ventricles were pooled, minced and dispersed by three 20-min incubations at 37° C. in Ads buffer (116 mM NaCl, 20 mM HEPES, 10 mM NaH2PO4, 5.5 mM glucose, 5 mM KCl, 0.8 mM MgSO4, pH 7.4) containing collagenase Type II (65 units/ml, Worthington) and pancreatin (0.6 mg/ml, GibcoBRL). Dispersed cells were applied to a discontinuous gradient of 40.5% and 58.5% (v/v) Percoll (Amersham Biosciences), centrifuged, and myocytes collected from the interface layer. Myocyte preparations were pre-plated in Dulbecco's modified Eagle's medium (DMEM, Cellgro), supplemented with 10% (v/v) fetal bovine serum (FBS, HyClone), 4 mM L-glutamine and 1% penicillin/streptomycin for 1 hour at 37° C. to reduce fibroblast contamination, then plated at a density of 2.5×10^5 cells per well on 6-well tissue culture plates (or 10,000 cells/well on 96-well tissue culture plates) coated with a 0.2% (w/v) gelatin solution. […]
Western Blots. […] Protein concentrations were determined by the bicinchoninic acid method (BCA Protein Assay, Pierce) with bovine serum albumin as a standard. Equivalent quantities of protein samples ([…]) were denatured in Laemmli buffer and resolved on Tris-glycine SDS-PAGE gels (4-20% acrylamide gradient, Invitrogen). […]

[5] = system: neonatal rat ventricular myocytes (NRVM); assay: ANF secretion by competitive ELISA in NRVM; format: cell-based; conditions: NRVM stimulated with 18264 (1 μM), 48 h; antagonist up to 3 μM
Method: as §4
(§5) Hypertrophy and toxicity assays. Primary hypertrophy endpoints for NRVM included quantitation of: ANF secretion, total cellular protein and cell volume. ANF in media supernatants was quantitated by competitive ELISA using a monoclonal anti-ANF antibody (Biodesign) and a biotinylated ANF peptide (Phoenix Peptide). Total cellular protein was quantitated by standard Coomassie dye-binding assay; cells were lysed in protein assay reagent (BioRad) and absorbance at A595 was measured after 1 hour. […] After recovery by centrifugation, cell pellets were washed in PBS, resuspended in 10 ml IsoFlow electrolyte solution (Beckman-Coulter) and analyzed with a Z2 Coulter Particle Counter and Size Analyzer (Beckman-Coulter). Cytotoxicity was quantitated by measuring release of adenylate kinase (AK) from cultured NRVM into culture medium (ToxiLight kit, Cambrex).

[6] = system: neonatal rat ventricular myocytes (NRVM); assay: Total cellular protein (Coomassie dye-binding) in NRVM; format: cell-based; conditions: PE-stimulated (20 μM) NRVM, 0.1-3 μM compound, 48 hours
Method: NRVM culture. For preparations of neonatal rat ventricular myocytes (NRVMs), hearts were removed from 10-20 newborn (1-2 days old) Sprague-Dawley rats. Isolated ventricles were pooled, minced and dispersed by three 20-min incubations at 37° C. in Ads buffer (116 mM NaCl, 20 mM HEPES, 10 mM NaH2PO4, 5.5 mM glucose, 5 mM KCl, 0.8 mM MgSO4, pH 7.4) containing collagenase Type II (65 units/ml, Worthington) and pancreatin (0.6 mg/ml, GibcoBRL). Dispersed cells were applied to a discontinuous gradient of 40.5% and 58.5% (v/v) Percoll (Amersham Biosciences), centrifuged, and myocytes collected from the interface layer. […]
as §5, with “Cytotoxicity was quantitated by measuring release of adenylate kinase (AK) from cultured NRVM into culture medium (ToxiLight kit, Cambrex).” left out

[7] = system: neonatal rat ventricular myocytes (NRVM); assay: Cell volume measurement (Coulter counter) of NRVM; format: cell-based; conditions: PE-stimulated (20 μM) NRVM, 48 hours
Method: as §4, §5

[8] = system: HDAC5; assay: HDAC localization assay, GFP-HDAC5 in NRVM; format: cell-based, rat
Method: NRVM culture. For preparations of neonatal rat ventricular myocytes (NRVMs), hearts were removed from 10-20 newborn (1-2 days old) Sprague-Dawley rats. Isolated ventricles were pooled, minced and dispersed by three 20-min incubations at 37° C. in Ads buffer (116 mM NaCl, 20 mM HEPES, 10 mM NaH2PO4, 5.5 mM glucose, 5 mM KCl, 0.8 mM MgSO4, pH 7.4) containing collagenase Type II (65 units/ml, Worthington) and pancreatin (0.6 mg/ml, GibcoBRL). Dispersed cells were applied to a discontinuous gradient of 40.5% and 58.5% (v/v) Percoll (Amersham Biosciences), centrifuged, and myocytes collected from the interface layer. Myocyte preparations were pre-plated in Dulbecco's modified Eagle's medium (DMEM, Cellgro), supplemented with 10% (v/v) fetal bovine serum (FBS, HyClone), 4 mM L-glutamine and 1% penicillin/streptomycin for 1 hour at 37° C. to reduce fibroblast contamination, then plated at a density of 2.5×10^5 cells per well on 6-well tissue culture plates (or 10,000 cells/well on 96-well tissue culture plates) coated with a 0.2% (w/v) gelatin solution. After 24 hours in culture, myocyte preparations were transferred to serum-free maintenance medium (DMEM supplemented with 0.1% (v/v) Nutridoma (Roche), L-glutamine and penicillin/streptomycin). Where indicated, NRVM were treated with test compounds for a period of 48 h. For immunofluorescence applications, NRVM cultures were fixed, incubated with primary antibodies against alpha skeletal actin and atrial natriuretic factor, then incubated with rhodamine- or flurorescein-conjugated secondary antibodies. For HDAC localization assays, NRVM were plated to clear bottomed 96-well plates and infected overnight with recombinant adenovirus encoding HDAC5 fused to green fluorescent protein (multiplicity of infection=50). The next day, medium was replaced with serum-free maintenance medium for 4 hours, and test compounds added. After two hours, NRVM were fixed and imaged by fluorescent microscopy.

[9] = system: neonatal rat ventricular myocytes (NRVM); assay: Cytotoxicity by adenylate kinase (AK) release from NRVM; format: cell-based
Method: Hypertrophy and toxicity assays. Primary hypertrophy endpoints for NRVM included quantitation of: ANF secretion, total cellular protein and cell volume. ANF in media supernatants was quantitated by competitive ELISA using a monoclonal anti-ANF antibody (Biodesign) and a biotinylated ANF peptide (Phoenix Peptide). Total cellular protein was quantitated by standard Coomassie dye-binding assay; cells were lysed in protein assay reagent (BioRad) and absorbance at A595 was measured after 1 hour. For cell volume measurements, NRVM cultured in 6-well dishes were harvested by treatment with trypsin (Cellgro). After recovery by centrifugation, cell pellets were washed in PBS, resuspended in 10 ml IsoFlow electrolyte solution (Beckman-Coulter) and analyzed with a Z2 Coulter Particle Counter and Size Analyzer (Beckman-Coulter). Cytotoxicity was quantitated by measuring release of adenylate kinase (AK) from cultured NRVM into culture medium (ToxiLight kit, Cambrex).

Compound: Nc1cc(-c2ccccc2)nc2ccccc12 [Compound 20068, 2-Phenyl-quinolin-4-ylamine]
- % Inhibition of Binding [1]: 19%
- inhibition at 10 µM [2]: 76%
- inhibition at 10 µM [3]: 63%
- attenuation of 18264-dependent induction of MCIP1 protein expression [4]: blocking 18264-dependent increases in MCIP1 protein in a dose-dependent manner
- block of 18264-dependent ANF secretion [5]: effective at blocking
- attenuation of PE-dependent increase in total cellular protein [6]: attenuated
- reduction of PE-dependent increase in cardiomyocyte cell volume ([7]; 3 μM compound): 49%
- attenuation of PE-dependent increase in cell volume (in words) ([7]; 0.1-3 μM compound): attenuated
- block of 18264-dependent nuclear export of HDAC5 ([8]; NRVM pretreated with 20068 (2 μM) one hour before 18264 (1 μM)): effective at blocking
- cytotoxicity (AK release), in words ([9]; presence or absence of hypertrophic stimuli, up to 3 micromolar, 48 hours): no significant cytotoxicity

Compound: CNC[C@H](O)c1cccc(O)c1 [PE, phenylephrine, reference compound]
- nuclear export of HDAC5-GFP ([8]; NRVM, two hours, 18264 1 μM, PE 20 μM): moves to cytoplasm

Compound: O=C(c1ccc(F)cc1)C1CCN(CCn2c(=O)[nH]c3ccccc3c2=O)CC1 [ketanserin, reference compound]
- attenuation of 18264-dependent induction of MCIP1 protein expression [4]: attenuated
- block of 18264-dependent ANF secretion [5]: able to block

Compound: Triton X-100 [reference compound]
- fold change in AK release versus unstimulated control ([9]; 0.1% Triton X-100, positive control): approximately 6.5 fold
